# Reference: patent US10201585B2, “Methods for treatment of atherosclerosis” (Stealth Peptides International, Inc., priority 2012, dated 2019)
# Where “and” joins values, the source holds several entries; their conditions need not be identical. Identical values can stand only once. Entries after “also recorded” stand apart in the source; their conditions may differ.
# Experiments:
# [1] = test system: fibroblast cells; test: Coenzyme Q10 levels in fibroblasts treated with peptide; type: cell-based; conditions: 10 nM peptide for 16-24 hours or 5 days, DMEM, versus saline treated (FIG. 5)
# Method: Fibroblasts were treated with an aromatic-cationic peptide of the present disclosure, and levels of coenzyme Q10 were evaluated.
# Fibroblasts were culture by methods known in the art, and treated with the aromatic-cationic peptide D-Arg-2′6′-Dmt-Lys-Phe-NH2 as shown in Table 11 below. Data represents the average n=3-6.
# Coenzyme Q10 levels were evaluated by methods known in the art.
# [2] = test system: Apoprotein E deficient mice; test: Total lesion area in aortic root 300 μm across aortic valve (cryosections, lipid staining); type: in vivo; parameters: Total lesion area in aortic root 300 μm across aortic valve / Total lesion area in aortic root 300 μm across aortic valve, AVE: unit not given here
# Text: (§1) Apoprotein E deficient mice (Jackson Laboratories, 600 Main Street, Bar Harbor, Me.) were used in this study. The mice were male, 7-8 weeks of age, and between 18-20 g in weight. An initial total cholesterol measurement was made on 30 mice, and the mice were grouped into two groups of 15 to match the total cholesterol measurements. Both groups were fed a “western diet” (40 kcal % butterfat, 0.15% [wt/wt] cholesterol, Harlan Teklad diet TD-88137). Starting at t=0, the control group of 15 mice received vehicle only (phosphate buffered saline at pH 7.4), while the test group of 15 mice received aromatic-cationic peptide reconstituted in phosphate buffered saline. Body weights of the mice were recorded weekly, and mortality checks were performed daily.
# The aromatic-cationic peptide D-Arg-2′6′-Dmt-Lys-Phe-NH2 (sterile lyophilized powder, reconstituted in phosphate buffered saline) was tested. […]
# For the aortic sinus, the heart and approximately 5 mm of the ascending aorta was cut from the remainder of the aorta. […] The sinus was imaged at 5 step levels in the region of interest, i.e., the aortic root, for a total distance of 300 μm and the lipid-staining areas and measured (total cross sectional area) using a Nikon computerized image analysis system. The data were then computed by group and statistically analyzed.
# [3] = test system: Apoprotein E deficient mice; test: Plasma lipoprotein cholesterol by gel electrophoresis (Spife; HDL-C, LDL-C, VLDL-C); type: in vivo
# Text: as §1
# (§2) The aromatic-cationic peptide D-Arg-2′6′-Dmt-Lys-Phe-NH2 (sterile lyophilized powder, reconstituted in phosphate buffered saline) was tested. For the 12-week study, test mice received a single, daily dose of the peptide, subcutaneously at 1 mg/kg. Control mice received a single daily dose of vehicle.
# (§3) Blood was collected every four weeks (orbital plexis) under isoflurane anesthesia (3%) and blood lipids were determined. Plasma lipid analysis was conducted for both groups at t=0, 4, 6, 8, and 12 weeks. Plasma lipid analysis using an autoanalyzer included total cholesterol (TC), triglycerides (Trigs), phospholipids (PL), free cholesterol (FC), and cholesterol ester (CE, by calculation). Gel electrophoresis was used to measure levels of high-density lipoprotein cholesterol (HDL-C), low-density lipoprotein cholesterol (LDL-C), and very low-density lipoprotein cholesterol (VLDL-C).
# [4] = test system: Apoprotein E deficient mice; test: Plasma lipid analysis using an autoanalyzer (TC, Trigs, PL, FC, CE by calculation); type: in vivo; parameters: Plasma CE (cholesterol ester, by calculation) / Plasma PL (phospholipids): unit not given here
# Text: as §1, §2, §3
# [5] = Week 0 (baseline), group mean of 15 test mice, vehicle group 25
# [6] = Week 0 (start of treatment, baseline), individual mouse of peptide group (sample 16-30)
# [7] = Week 4, individual test mice (sample # 16-30), listed as aromatic-cationic peptide
# [8] = Week 8, individual test mice (sample # 16-30), listed as aromatic-cationic peptide
# [9] = Week 12, AVE of test mice 16-30
# [10] = Week 12, individual test mice (sample # 16-30), listed as aromatic-cationic peptide
# [11] = treated versus vehicle at 4, 8 and 12 week time points
substance,measurement,setting,value
D-Arg-2′6′-Dmt-Lys-Phe-NH2,Coenzyme Q10 levels in fibroblast cells,[1],increased
same,"Total lesion area in aortic root 300 μm across aortic valve, AVE","[2]; group mean of 15 test mice, 12 weeks, vehicle group 351.77",282.72
same,"Total (mean) lesion area in the aortic root, in words","[2]; treated versus vehicle, 12 weeks (Table 9, FIG. 3)",reduces; also recorded: lower
same,"Plasma HDL-C, AVE",[3]; [5],28 mg/dL
same,"Plasma VLDL-C, AVE",[3]; [5],26 mg/dL
same,"Plasma LDL-C, AVE","[3]; Week 0 (baseline), group mean of 15 test mice, vehicle group 362",368 mg/dL
same,Plasma HDL-C,[3]; [6],19 mg/dL and 34 mg/dL and 32 mg/dL and 37 mg/dL and 35 mg/dL and 21 mg/dL and 38 mg/dL and 41 mg/dL and 6 mg/dL and 31 mg/dL and 26 mg/dL and 39 mg/dL and 22 mg/dL and 29 mg/dL and 8 mg/dL
same,Plasma LDL-C,[3]; [6],258 mg/dL and 260 mg/dL and 307 mg/dL and 245 mg/dL and 268 mg/dL and 295 mg/dL and 304 mg/dL and 474 mg/dL and 287 mg/dL and 352 mg/dL and 380 mg/dL and 481 mg/dL and 410 mg/dL and 432 mg/dL and 773 mg/dL
same,Plasma VLDL-C,[3]; [6],25 mg/dL (2×) and 23 mg/dL and 37 mg/dL and 20 mg/dL (2×) and 19 mg/dL and 27 mg/dL and 36 mg/dL and 15 mg/dL and 26 mg/dL and 31 mg/dL and 24 mg/dL and 28 mg/dL and 29 mg/dL
same,"HDL-C, Spife (electrophoresis)","[3]; Week 4, AVE of test mice 16-30",25 mg/dL
same,"LDL-C, Spife (electrophoresis)","[3]; Week 4, AVE of test mice 16-30",940 mg/dL
same,"VLDL-C, Spife (electrophoresis)","[3]; Week 4, AVE of test mice 16-30",33 mg/dL
same,"HDL-C, Spife (electrophoresis)",[3]; [7],18 mg/dL and 20 mg/dL (3×) and 0 mg/dL and 13 mg/dL and 7 mg/dL and 23 mg/dL and 32 mg/dL (3×) and 15 mg/dL and 45 mg/dL and 44 mg/dL and 49 mg/dL
same,"LDL-C, Spife (electrophoresis)",[3]; [7],745 mg/dL and 866 mg/dL and 918 mg/dL and 1120 mg/dL and 982 mg/dL and 648 mg/dL and 893 mg/dL and 975 mg/dL and 770 mg/dL and 766 mg/dL and 966 mg/dL and 1147 mg/dL and 874 mg/dL and 1171 mg/dL and 1254 mg/dL
same,"VLDL-C, Spife (electrophoresis)",[3]; [7],35 mg/dL (2×) and 37 mg/dL (2×) and 19 mg/dL and 44 mg/dL (2×) and 18 mg/dL and 23 mg/dL and 39 mg/dL and 41 mg/dL and 28 mg/dL and 31 mg/dL and 30 mg/dL and 32 mg/dL
same,"HDL-C, Spife (electrophoresis)","[3]; Week 8, AVE of test mice 16-30",32 mg/dL
same,"LDL-C, Spife (electrophoresis)","[3]; Week 8, AVE of test mice 16-30",1166 mg/dL
same,"VLDL-C, Spife (electrophoresis)","[3]; Week 8, AVE of test mice 16-30",84 mg/dL
same,"HDL-C, Spife (electrophoresis)",[3]; [8],42 mg/dL and 34 mg/dL and 27 mg/dL and 33 mg/dL and 19 mg/dL (2×) and 8 mg/dL and 45 mg/dL and 16 mg/dL and 32 mg/dL and 41 mg/dL (2×) and 25 mg/dL and 43 mg/dL and 57 mg/dL
same,"LDL-C, Spife (electrophoresis)",[3]; [8],1119 mg/dL and 897 mg/dL and 1392 mg/dL and 1071 mg/dL and 1415 mg/dL and 901 mg/dL and 875 mg/dL and 1378 mg/dL and 922 mg/dL and 856 mg/dL and 1317 mg/dL and 1320 mg/dL and 1025 mg/dL and 1382 mg/dL and 1621 mg/dL
same,"VLDL-C, Spife (electrophoresis)",[3]; [8],101 mg/dL and 73 mg/dL and 86 mg/dL and 79 mg/dL (2×) and 112 mg/dL and 34 mg/dL and 88 mg/dL and 69 mg/dL and 59 mg/dL and 93 mg/dL and 74 mg/dL and 80 mg/dL and 109 mg/dL and 119 mg/dL
same,"HDL-C, Spife (electrophoresis)",[3]; [9],21 mg/dL
same,"LDL-C, Spife (electrophoresis)",[3]; [9],939 mg/dL
same,"VLDL-C, Spife (electrophoresis)",[3]; [9],44 mg/dL
same,"HDL-C, Spife (electrophoresis)",[3]; [10],38 mg/dL and 20 mg/dL (2×) and 10 mg/dL and 41 mg/dL and 21 mg/dL and 5 mg/dL and 31 mg/dL (2×) and 2 mg/dL (2×) and 40 mg/dL and 28 mg/dL and 1 mg/dL and 23 mg/dL
same,"LDL-C, Spife (electrophoresis)",[3]; [10],821 mg/dL and 485 mg/dL and 854 mg/dL and 852 mg/dL and 1328 mg/dL and 693 mg/dL and 611 mg/dL and 692 mg/dL and 962 mg/dL and 896 mg/dL and 1275 mg/dL and 1218 mg/dL and 505 mg/dL and 1203 mg/dL and 1688 mg/dL
same,"VLDL-C, Spife (electrophoresis)",[3]; [10],39 mg/dL and 35 mg/dL and 21 mg/dL (2×) and 43 mg/dL and 71 mg/dL and 32 mg/dL and 33 mg/dL and 26 mg/dL and 63 mg/dL and 76 mg/dL and 36 mg/dL and 30 mg/dL and 83 mg/dL and 46 mg/dL
same,"Plasma LDL-C, in words",[3]; [11],reduces
same,"Plasma VLDL-C, in words",[3]; [11],reduces
same,"Plasma FC (free cholesterol), AVE","[4]; Week 0 (baseline), group mean of 15 test mice, vehicle group 136",142
same,"Plasma Trigs (triglycerides), AVE","[4]; Week 0 (baseline), group mean of 15 test mice, vehicle group 141",140
same,"Plasma CE (cholesterol ester, by calculation), AVE","[4]; Week 0 (baseline), group mean of 15 test mice, vehicle group 275",280
same,"Plasma PL (phospholipids), AVE","[4]; Week 0 (baseline), group mean of 15 test mice, vehicle group 297",309
same,"Plasma TC (total cholesterol), AVE","[4]; Week 0 (baseline), group mean of 15 test mice, vehicle group 411",422
same,"Plasma CE (cholesterol ester, by calculation)",[4]; [6],183 and 197 and 242 and 192 and 207 and 204 and 240 and 366 and 196 and 270 and 297 and 382 and 306 and 331 and 588
same,Plasma FC (free cholesterol),[4]; [6],119 and 121 and 134 (2×) and 110 and 116 and 131 and 129 and 184 and 113 and 139 and 170 and 151 and 159 and 220
same,Plasma PL (phospholipids),[4]; [6],267 (3×) and 308 and 255 and 306 and 298 and 369 and 238 and 320 and 313 and 332 and 343 and 338 and 413
